Experimental data: patent US10875874B2, “Ginkgolide B derivative and preparation method and use thereof” (Chengdu Baiyu Ginkgolide Pharmaceuticals Co., Ltd., priority 2015, dated 2020)
Converted amounts (≈) assume the structure as drawn. Marks after values point to notes of the source that are not given here.

Experiments:
[1] = Weekly body weight of SHR rats; format: in vivo, rat
In short: (§1)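 Male and female SHR rats (200-250 g, 8/group) dosed intragastrically once daily for 8 weeks with test compounds at 60 or 120 mg/kg/d or captopril 27 mg/kg; Wistar and SHR controls received distilled water. Body weight and food intake observed during treatment.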

[2] = tested on: spontaneously hypertensive rats (SHR); experiment: Caudal artery systolic pressure of spontaneously hypertensive rats, single administration; format: in vivo, rat; conditions: x ± s, n = 8
In short: (§2)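 SHR rats of both sexes (200–250 g, 8/group) dosed intragastrically with 60 or 120 mg/kg/d, or captopril 27 mg/kg, once daily for 8 weeks; Wistar rats and vehicle SHR served as controls. Tail-cuff systolic pressure taken as the mean of 3 readings, measured before dosing and 30–120 min after the first dose, or 30 min post-dose on days 1–56 for chronic treatment.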

[3] = Weekly food intake of SHR rats; format: in vivo, rat
In short: as §1

[4] = tested on: spontaneously hypertensive rats (SHR); experiment: Caudal artery systolic pressure of spontaneously hypertensive rats, 8 weeks of continuous medication; format: in vivo, rat; conditions: x ± s, n = 8
In short: as §2

Water solubility test = conditions: purified water, thermodynamic from solid
Procedure: Measuring method: samples are ground to obtain fine powder, target compounds are quantitatively weighed, the weighed compounds are added into purified water, and the solubility of the compounds is investigated by ultrasonics.

[5] = 60 mg/kg/d intragastric, week 0
[6] = 60 mg/kg/d intragastric, week 1
[7] = 60 mg/kg/d intragastric, week 2
[8] = 60 mg/kg/d intragastric, week 3
[9] = 60 mg/kg/d intragastric, week 4
[10] = 60 mg/kg/d intragastric, week 5
[11] = 60 mg/kg/d intragastric, week 6
[12] = 60 mg/kg/d intragastric, week 7
[13] = 60 mg/kg/d intragastric, week 8
[14] = 120 mg/kg/d intragastric, week 0
[15] = 120 mg/kg/d intragastric, week 1
[16] = 120 mg/kg/d intragastric, week 2
[17] = 120 mg/kg/d intragastric, week 3
[18] = 120 mg/kg/d intragastric, week 4
[19] = 120 mg/kg/d intragastric, week 5
[20] = 120 mg/kg/d intragastric, week 6
[21] = 120 mg/kg/d intragastric, week 7
[22] = 120 mg/kg/d intragastric, week 8

Structure (SMILES): C[C@@H]1C(=O)O[C@H]2[C@H](O)[C@@]34C5C[C@@H](C(C)(C)C)C36[C@@H](OC(=O)[C@@H]6OC(=O)[C@H](c3ccccc3Cl)N3CCc6sccc6C3)O[C@@]4(C(=O)O5)[C@@]12O (some centres unmarked) [BL]
- Body weight [1, 5]: 230.9 g
- Body weight [1, 6]: 236.4 g
- Body weight [1, 7]: 243.1 g
- Body weight [1, 8]: 252.8 g
- Body weight [1, 9]: 260.9^▴▴ g
- Body weight [1, 10]: 265.8^▴▴ g
- Body weight [1, 11]: 270.6^▴ g
- Body weight [1, 12]: 277.3^▴▴ g
- Body weight [1, 13]: 285.4^▴▴ g
- Body weight [1, 14]: 230.6 g
- Body weight [1, 15]: 251.8^▴▴ g
- Body weight [1, 16]: 257.3^▴▴ g
- Body weight [1, 17]: 264.1^▴▴ g
- Body weight [1, 18]: 270.5^▴▴ g
- Body weight [1, 19]: 281.7^▴▴ g
- Body weight [1, 20]: 290.3^▴▴ g
- Body weight [1, 21]: 302.8^▴▴ g
- Body weight [1, 22]: 315.2^▴▴ g
- Systolic pressure ([2]; 60 mg/kg intragastric single administration, 30 min): 158.36 ± 10.54 mmHg
- Systolic pressure ([2]; 60 mg/kg intragastric single administration, 60 min): 154.68 ± 12.48 mmHg
- Systolic pressure ([2]; 60 mg/kg intragastric single administration, 90 min): 152.74 ± 12.58 mmHg
- Systolic pressure ([2]; 60 mg/kg intragastric single administration, 120 min): 152.04 ± 10.02 mmHg
- Systolic pressure ([2]; 60 mg/kg intragastric single administration, before administration): 165.68 ± 16.35 mmHg
- Systolic pressure ([2]; 120 mg/kg intragastric single administration, 30 min): 148.01 ± 5.98 mmHg
- Systolic pressure ([2]; 120 mg/kg intragastric single administration, 60 min): 151.36 ± 9.45 mmHg
- Systolic pressure ([2]; 120 mg/kg intragastric single administration, 90 min): 152.95 ± 12.54 mmHg
- Systolic pressure ([2]; 120 mg/kg intragastric single administration, 120 min): 151.98 ± 9.26 mmHg
- Systolic pressure ([2]; 120 mg/kg intragastric single administration, before administration): 164.25 ± 11.69 mmHg
- Average dairy food intake [3, 5]: 18.4 g/day
- Average dairy food intake [3, 6]: 19.4^▴ g/d
- Average dairy food intake [3, 7]: 20.5^▴▴ g/d
- Average dairy food intake [3, 8]: 21.0^▴▴ g/d
- Average dairy food intake [3, 9]: 20.9^▴▴ g/d
- Average dairy food intake [3, 10]: 21.9^▴▴ g/d
- Average dairy food intake [3, 11]: 23.5^▴▴ g/d
- Average dairy food intake [3, 12]: 24.5^▴▴ g/d
- Average dairy food intake [3, 13]: 25.1^▴▴ g/d
- Average dairy food intake [3, 14]: 18.6 g/day
- Average dairy food intake [3, 15]: 20.0^▴ g/d
- Average dairy food intake [3, 16]: 20.8^▴▴ g/d
- Average dairy food intake [3, 17]: 21.9^▴▴ g/d
- Average dairy food intake [3, 18]: 22.7^▴▴ g/d
- Average dairy food intake [3, 19]: 23.5^▴▴ g/d
- Average dairy food intake [3, 20]: 24.6^▴▴ g/d
- Average dairy food intake [3, 21]: 25.1^▴▴ g/d
- Average dairy food intake [3, 22]: 26.7^▴▴ g/d
- Systolic pressure ([4]; 60 mg/kg/d intragastric continuous, 1 d, 30 min after administration): 154.08 ± 11.54 mmHg
- Systolic pressure ([4]; 60 mg/kg/d intragastric continuous, 7 d, 30 min after administration): 156.92 ± 9.82 mmHg
- Systolic pressure ([4]; 60 mg/kg/d intragastric continuous, 13 d, 30 min after administration): 156.07 ± 8.52 mmHg
- Systolic pressure ([4]; 60 mg/kg/d intragastric continuous, 19 d, 30 min after administration): 153.96 ± 11.07 mmHg
- Systolic pressure ([4]; 60 mg/kg/d intragastric continuous, 25 d, 30 min after administration): 154.57 ± 9.74 mmHg
- Systolic pressure ([4]; 60 mg/kg/d intragastric continuous, 35 d, 30 min after administration): 153.67 ± 11.58 mmHg
- Systolic pressure ([4]; 60 mg/kg/d intragastric continuous, 49 d, 30 min after administration): 149.68 ± 10.42 mmHg
- Systolic pressure ([4]; 60 mg/kg/d intragastric continuous, 56 d, 30 min after administration): 153.62 ± 9.47 mmHg
- Systolic pressure ([4]; 60 mg/kg/d intragastric continuous, before administration): 165.68 ± 16.35 mmHg
- Systolic pressure ([4]; 120 mg/kg/d intragastric continuous, 1 d, 30 min after administration): 153.56 ± 8.15 mmHg
- Systolic pressure ([4]; 120 mg/kg/d intragastric continuous, 7 d, 30 min after administration): 152.74 ± 10.25 mmHg
- Systolic pressure ([4]; 120 mg/kg/d intragastric continuous, 13 d, 30 min after administration): 149.52 ± 10.24 mmHg
- Systolic pressure ([4]; 120 mg/kg/d intragastric continuous, 19 d, 30 min after administration): 149.05 ± 11.09 mmHg
- Systolic pressure ([4]; 120 mg/kg/d intragastric continuous, 25 d, 30 min after administration): 147.09 ± 12.68 mmHg
- Systolic pressure ([4]; 120 mg/kg/d intragastric continuous, 35 d, 30 min after administration): 147.52 ± 10.64 mmHg
- Systolic pressure ([4]; 120 mg/kg/d intragastric continuous, 49 d, 30 min after administration): 150.94 ± 11.06 mmHg
- Systolic pressure ([4]; 120 mg/kg/d intragastric continuous, 56 d, 30 min after administration): 149.76 ± 12.63 mmHg
- Systolic pressure ([4]; 120 mg/kg/d intragastric continuous, before administration): 164.25 ± 11.69 mmHg
- solubility (Water solubility test): 200 µg/mL (≈ 280 µM)
